Test results published in PubChem BioAssay AID1645865 (Buhrlage Lab, Dana-Farber Cancer Institute and Novartis …, 2021).
Calls of active or inactive are those of the source.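 The calls were made as follows: active = maximal inhibition of the USP30 enzyme reaching 30% or more across the dose series; inactive = the rest.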

biological target: Ubiquitin carboxyl-terminal hydrolase 30 (Homo sapiens) (UniProt Q70CQ3); test: inhibitors of ubiquitin-specific protease 30 deubiquitylating enzyme, concentration dependence, in vitro biochemical, validation of primary hits (AID 1645865); settings: purified USP30, Ub-rhodamine cleavage, fluorescence, 2 h
Sequence (Q70CQ3 whole entry, looked up): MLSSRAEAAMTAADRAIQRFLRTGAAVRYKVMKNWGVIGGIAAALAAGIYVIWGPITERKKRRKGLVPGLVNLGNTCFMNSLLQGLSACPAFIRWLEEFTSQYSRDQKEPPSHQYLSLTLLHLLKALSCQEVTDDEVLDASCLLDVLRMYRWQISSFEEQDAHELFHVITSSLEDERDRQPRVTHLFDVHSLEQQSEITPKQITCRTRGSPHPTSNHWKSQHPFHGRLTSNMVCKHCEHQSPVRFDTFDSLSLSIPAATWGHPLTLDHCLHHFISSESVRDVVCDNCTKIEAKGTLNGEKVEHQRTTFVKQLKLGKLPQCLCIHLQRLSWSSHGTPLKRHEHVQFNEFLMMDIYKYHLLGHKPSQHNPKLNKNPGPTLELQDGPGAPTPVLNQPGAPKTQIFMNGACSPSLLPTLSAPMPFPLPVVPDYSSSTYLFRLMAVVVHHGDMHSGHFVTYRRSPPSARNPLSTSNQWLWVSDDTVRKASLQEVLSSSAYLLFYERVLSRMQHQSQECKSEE

Compound	IC50
Clc1ccccc1CSc1nnc(C2CCCCC2)n1Cc1ccccc1	21.5 µM
O=C(NCc1ccccc1Cl)C1CCCN(c2nc3ccsc3c(=O)s2)C1 (centres undefined)	0.965 µM
CC1CC(=O)Nc2ccccc2N1S(=O)(=O)c1ccc(C#N)cc1 (centres undefined)	> 50 µM (inactive)
CCCCc1nc2sc3c(NCCN4CCOCC4)ncnc3c2c2c1CCC2	> 50 µM (inactive)
CC1OC2CC(O)C1(O)C1=C2C(=O)c2c(O)c3c(c(O)c2C1=O)[C@H](C)O[C@H]1CC(=O)O[C@@H]31 (some centres undefined)	> 50 µM (inactive)
O=C(CSc1nc2cc(C(F)(F)F)ccc2s1)NCC(=O)c1ccccc1	1.82 µM
O=c1oc2ccccc2c2nn(-c3ccccn3)cc12	16.7 µM
O=C(/C=C/c1ccccc1)N1CCN(C2=NS(=O)(=O)c3ccccc32)CC1	> 50 µM (inactive)
CCNc1oc(-c2ccc(S(=O)(=O)N3CCCCC3)cc2)nc1C#N	21.9 µM
COc1cccc(NC(=O)c2nnn(-c3ccccc3)n2)c1	> 50 µM (inactive)
Oc1cc(OCc2cccc(C(F)(F)F)c2)ccc1-c1ccn[nH]1	37.3 µM
FC(F)(F)c1cccc(Nc2nnc(-c3cccnc3)s2)c1	2.76 µM
COc1ccc2[nH]c3c(c2c1)CCN1C(=O)N(c2ccccc2C(=O)NCc2ccccc2)C(=O)[C@]31C	28.5 µM
O=c1c(OC2O[C@H](CO)[C@H](O)[C@H](O)[C@H]2O)c(-c2ccc(O)cc2)oc2cc(O)cc(O)c12 (some centres undefined)	> 50 µM (inactive)
Cc1cccc(NC(=O)CSc2ccc(-n3cnc(-c4ccccc4)c3)nn2)c1	1.95 µM
CC(C)=CCC/C(C)=C/C[C@]1(O)C(=O)c2cc(O)cc(O)c2C(=O)[C@@]1(Cl)CC=C(C)C	> 50 µM (inactive)
COc1ccc(-c2cc(-c3nnc(CSc4nc5ccccc5n4C)o3)c3ccccc3n2)cc1OC	> 50 µM (inactive)
COc1ccc(C(=O)Nc2cc3c4c(c2)C(C)C(=O)N4CCC3)cc1 (centres undefined)	> 50 µM (inactive)
Cc1ccc2c(c1)c(=O)c(C(=O)c1ccc(F)cc1)cn2CC(=O)Nc1ccc2c(c1)OCCO2	> 5 µM (inactive)
CCCCCCCc1cc(O)cc(OC(=O)c2c(CCCCCCC)cc(O)cc2O[C@H]2O[C@H](C(O)CO)[C@@H](O)[C@@H]2O)c1 (some centres undefined)	40.3 µM
O=C(NCc1ccc(F)cc1)C1CCCN(c2cnc3nccnc3c2)C1 (centres undefined)	> 50 µM (inactive)
COc1c(O)cc(CC(=O)O)c(C(C)=O)c1O	> 5 µM (inactive)
C=C(NC(=O)C(=C)NC(=O)c1csc(-c2ccc3c(n2)-c2csc(n2)-c2csc(n2)C(C(C)C2CO2)NC(=O)C(Cc2ccc(O)cc2)NC(=O)c2csc(n2)C(C(O)c2ccccc2)NC(=O)c2nc(sc2C)C(CC(N)=O)NC(=O)c2csc-3n2)n1)C(=O)O (centres undefined)	> 50 µM (inactive)
O=C(NC1CCN(Cc2ccccc2)CC1)c1[nH]nc2c1CCc1ccccc1-2	> 50 µM (inactive)

Compound	IC50
Cc1ccccc1C(=O)Nc1ccc(Cc2ccc(NC(=O)c3ccccc3C)c(O)c2)cc1O	> 50 µM (inactive)
CCOC(=O)[C@@H]1[C@@H](c2ccccc2)CN2CCN(C(=O)c3cnccn3)C[C@H]12	> 50 µM (inactive)
Cc1ccc(NC(=O)c2sc(=S)n(CCc3ccccc3)c2N)cc1	1.74 µM
O=C(NCCn1ccc2ccccc21)c1cc2ccccc2oc1=O	40.9 µM
O=C(NCc1ccccc1)c1ccc(-c2ccc(N3CCCC3)nn2)cc1	> 50 µM (inactive)
Fc1cc(F)c2[nH]cc(-c3nnnn3-c3ccc4ccccc4c3)c2c1	7.66 µM
O=C(CN1C=NC2=NS(=O)(=O)c3ccccc3N21)Nc1cc(F)ccc1F	36.6 µM
Cn1c(C(=O)NCc2ccccn2)cc2c(=O)[nH]c3ccccc3c21	> 50 µM (inactive)
Cc1ccc(Cn2nnc(C(=O)NCc3ccco3)c2-n2cccc2)cc1	> 50 µM (inactive)
Cc1c(C)n(-c2ccccc2)c2ncn(CC(=O)NCCCc3ccccc3)c(=O)c12	44.9 µM
CCOC(=O)c1ccc(S(=O)(=O)N2CCC(C(=O)OC(C)C(=O)Nc3cccc([N+](=O)[O-])c3)CC2)cc1 (centres undefined)	2.51 µM
CCOc1ccc(NC(=O)COc2cccc3c2CCN(CC)C3=O)cc1	> 50 µM (inactive)
CCOC(=O)N1CCN(S(=O)(=O)c2ccc(C(=O)Nc3ccc(Br)cc3)cc2)CC1	1.65 µM
CCOC(=O)c1ccc(NC(=O)c2cnc(N3CCOCC3)nc2)cc1	> 50 µM (inactive)
CN1CCN(C(=O)c2ccn(-c3ccc4ccc(-c5cnn(C)c5)cn34)n2)CC1	> 50 µM (inactive)
COc1cc([C@@H]2c3cc4c(cc3C[C@@H]3COC(=O)[C@H]32)OCO4)cc(OC)c1OC	18.7 µM
O=C(COc1nsnc1N1CCOCC1)Nc1ccccc1F	> 50 µM (inactive)
Cc1ccc(NCc2cc3c(C(C)(C)C)nn(-c4ccc(Cl)cc4)c3[nH]c2=O)cc1	> 50 µM (inactive)
CC(=O)Nc1ccc(-n2cnc(C(=O)NC(C)c3ccccc3)c2)nc1 (centres undefined)	25.8 µM
CC(=O)c1ccc(N2C(=O)N(Cc3cccc([N+](=O)[O-])c3)c3ccccc3S2(=O)=O)cc1	> 50 µM (inactive)
COc1ccc(-c2nc(-c3nnn(Cc4ccc(F)cc4)c3C)no2)c(OC)c1	8.97 µM
CC(C)(C)OC(=O)N1CCN(C(=O)Cn2c(=O)nc(-c3ccccc3)c3ccccc32)CC1	> 50 µM (inactive)
O=C(c1cnccn1)N1CCc2[nH]c3ccc(F)cc3c2C1	> 50 µM (inactive)
Cc1cc(C)nc(SCCn2c(N3CCC(Cc4ccccc4)CC3)nc3c2c(=O)n(C)c(=O)n3C)n1	46.9 µM

Compound	IC50
CCOc1ccc(-n2c(C)cc(/C=C(\C#N)c3nc4ccccc4[nH]3)c2C)cc1	> 50 µM (inactive)
CCCN1C=NS(=O)(=O)c2cc(C(=O)Nc3ccc(OC)c(Cl)c3)ccc21	12.5 µM
O=C(NCc1ccc2c(c1)OCO2)c1cc(-c2cc(Cl)ccc2O)n[nH]1	2.82 µM
Cc1c(-c2nsc(NC(=O)c3ccc(Cl)cc3)n2)nnn1-c1ccccc1F	0.488 µM
O=C(Nc1ccc(NS(=O)(=O)c2ccc3c4c(cccc24)CC3)cc1)c1ccccc1	> 50 µM (inactive)
Cc1cccc(-n2cnc(C(=O)NCc3ccc(F)cc3)c2)n1	44.9 µM
COc1cccc2c1C(=O)c1ccc3c(c1C2=O)C(=O)CC(C)(O)C3 (centres undefined)	> 50 µM (inactive)
O=C(CCc1ccccc1)N(CC1CCCO1)c1nc2ccccc2s1 (centres undefined)	37.3 µM
COCCCn1c(SCC(=O)Nc2ccccc2C(=O)OC)nc2ccccc2c1=O	25.7 µM
CC(=O)NCc1nc(-c2ccc3c(c2)nc(C)c(=O)n3C2CCCC2)no1	> 50 µM (inactive)
O=C(Nc1ccc2c(c1)OCCO2)c1cc(CN2CCCC2)on1	> 50 µM (inactive)
O=c1[nH]cccc1NS(=O)(=O)c1ccc(F)cc1	> 50 µM (inactive)
COc1ccc(COc2ccc3c(C)c(CC(=O)N4CC[C@@]5(O)CCCC[C@H]5C4)c(=O)oc3c2)cc1	2.22 µM
COc1ccccc1Nc1ncc(C(=O)NCCc2ccc(Cl)cc2)c2ccccc12	2.59 µM
c1ccc(CN2CCN(c3nc4ccccc4n4nnnc34)CC2)cc1	> 50 µM (inactive)
O=C(CSc1ccc(-c2cccc([N+](=O)[O-])c2)nn1)Nc1cccc(F)c1	2.11 µM
COc1ccccc1-c1nc2c3c(C)c(C)n(Cc4cccnc4)c3ncn2n1	> 50 µM (inactive)
CCOc1ccc(NC(=O)Cn2c(=O)n(CC(=O)NCc3ccc(C)cc3)c(=O)c3sccc32)cc1	0.465 µM
COc1ccc(Nc2nc(C(=O)NCc3ccccc3)cc3occc23)cc1	> 50 µM (inactive)
Cc1cc(O)c2c3c(c(O)cc2c1)C(=O)c1c(O)cccc1C3=O	> 50 µM (inactive)
Cc1cccc(NC(=O)CSc2nnc(-c3n[nH]c4c3CCC4)n2N)c1C	20.2 µM
Cc1ccc(C)c(NS(=O)(=O)c2cc(-c3cnc(C4CC4)o3)ccc2C)c1	> 50 µM (inactive)
O=c1c2ccccc2oc2nc(-c3cccs3)n(-c3ccccc3)c(=O)c12	2.42 µM
COCCCn1c(C(=O)NCCc2ccccc2)cc2c(=O)n3cccc(C)c3nc21	34.7 µM

Compound	IC50
Fc1ccc(CN2CCc3nc4cccnc4cc3C2)cc1	> 50 µM (inactive)
O=C1Oc2nc3ccccc3cc2CN1Cc1ccco1	17.2 µM
Cc1cccc(-n2ccnc(SCC(=O)Nc3ccc(Cl)cc3F)c2=O)c1	2.4 µM
Cc1cc(O)c(=O)cc2c1C[C@H]1CC(C)(C)/C=C/C[C@@]3(C)Oc4cc(=O)c(O)cc(C)c4C[C@@H]3C[C@H](O)[C@]1(C)O2	> 50 µM (inactive)
Cc1cccc(NC(=O)Cn2c(=O)n(Cc3ccc(F)cc3)c(=O)c3sccc32)c1	2.74 µM
COc1ccccc1CNC(=O)c1c(O)c2cnn(-c3cccc(C)c3)c2[nH]c1=O	> 50 µM (inactive)
COCCNC(=O)c1ccn(-c2ccc3ccc(-c4ccncc4)cn23)n1	> 50 µM (inactive)
CCc1ccc(NC(=O)CN=C2NS(=O)(=O)C(c3ccc(CC)cc3)=C2C)cc1	4.67 µM
Cc1ccc(Cn2c(=O)n(CCC(=O)NCCc3ccccc3)c(=O)c3ccccc32)cc1	5.14 µM
FC(F)(F)c1cccc(N2CCN(c3nc4ccccc4n4nnnc34)CC2)c1	> 50 µM (inactive)
CC(C)CC[C@H]1O[C@@H](CC(=O)O)Cc2cc3c(c(O)c21)C(=O)c1sc(=O)n(C)c1C3=O	> 50 µM (inactive)
O=C(NCCCc1nc2ccccc2n1Cc1c(Cl)cccc1Cl)c1ccco1	25 µM
CCc1ccc(C(C)NC(=O)C2CCN(c3ccc4nncn4n3)CC2)cc1 (centres undefined)	> 50 µM (inactive)
COCCCN1CCS(=O)(=O)c2c(Cl)c(F)nc(Oc3ccccc3F)c21	> 50 µM (inactive)
Cc1cc(NC(=O)Cn2c(=O)n(CCCCC(=O)NCc3ccco3)c(=O)c3ccccc32)ccc1Br	2.09 µM
COc1cc(NC(=O)Cn2nc(-c3ccc(F)cc3)ccc2=O)ccc1-n1cnnn1	1.74 µM
CC1CCCN(S(=O)(=O)c2cc3cc(F)ccc3oc2=O)C1 (centres undefined)	21.6 µM
N#Cc1ccc(NC(=O)c2ccc(S(=O)(=O)N3CCCCC3)cc2)cc1	8.97 µM
Cc1cccc(CNC(=O)C2CCCN(S(=O)(=O)Cc3ccc(F)cc3)C2)c1 (centres undefined)	14.5 µM
CCCc1nc2sc3c(NCc4ccco4)ncnc3c2c2c1CCC2	> 50 µM (inactive)
Nc1c(C(=O)c2cccs2)oc2nc(-c3ccccc3)cc(-c3ccco3)c12	> 50 µM (inactive)
O=C(c1ccc(Cl)cc1)c1c[nH]cc1-c1c(F)cccc1Cl	19 µM
